Patent publication US4542169A, “Biomedical devices containing isothiazolones to control bacteria growth” (Rohm and Haas Company, priority 1983, dated 1985)
≈ marks a conversion by molar mass, not a printed value.

Columns and labels:
[1] = tested on: Pseudomonas aeruginosa (P.a.); experiment: Zone of inhibition, polyvinyl chloride (vinyl) film discs; format: cell-based; settings: vinyl film
Experimental: (§1) In a two-liter, three-necked, round-bottom, flask equipped with a mechanical stirrer was placed 100 g of polyvinyl chloride, 590 g of reagent grade tetrahydrofuran, and 40.0 g of dioctylphthalate. This was stirred with gentle heating (35°-40° C.) for two hours to completely dissolve the polyvinyl chloride. Then, a barium/calcium salt of a fatty acid (3.5 g), a phosphite chelating agent (1.5 g), stearic Acid (0.25 g) and epoxidized soy bean oil (7.5 g), were mixed with 21 g of tetrahydrofuran and added to the polyvinyl chloride solution. After stirring at room temperature for 30 minutes, the solution was ready for use.
(§2) The films were cut into 1.25 cm discs and placed in agar plates inoculated with Staphlococcus aureus (S.a) or Echerichia coli (E.c.).
Discs were tested against Pseudomonas aeruginosa (P.a.). The 1.0% films gave a slight zone of inhibition while the 5.0% film gave a 1 mm zone of inhibition.

Escherichia coli = experiment: Minimum inhibitory concentration, bacteriostatic activity; format: cell-based; settings: Table III: Active Ingredient MIC
Pseudomonas aeruginosa = experiment: as above; format: cell-based; settings: Table III: Active Ingredient MIC
[2] = tested on: resistant bacterial colonies; settings: with time
[3] = tested on: Staphlococcus aureus (S.a); experiment: Zone of inhibition, polyvinyl chloride film discs on inoculated agar; format: cell-based; settings: PVC film
Experimental: as §1
(§3) Films containing the isothiazolones were cast by first preparing a 0.5 weight percent polyvinyl chloride solution by adding the isothiazolone to the polyvinyl chloride solution. Then, portions of the 0.5% solution were diluted to 0.1 and 0.05%. The films were drawn down on 12"×12" glass plates using a 50 mil-3" wide coating bar and the films were allowed to air dry for 48 hours.
as §2

Echerichia coli (E.c.) = experiment: as above; format: cell-based; settings: PVC film
Experimental: as §1, §3, §2

[4] = tested on: Aerobasidium pullulans (A.p); experiment: Zone of inhibition, polyvinyl chloride film; format: cell-based; settings: PVC film
Aspergillus niger = experiment: Minimum inhibitory concentration, fungistatic activity; format: cell-based; settings: Table III: Active Ingredient MIC
Aspergillis niger (A.n.) [5] = experiment: Zone of inhibition, polyvinyl chloride film; format: cell-based; settings: PVC film
sessile colonization = experiment: Implanted polyvinyl chloride coated pacemakers in dogs, growth after one month; format: in vivo; settings: for Agar culture / Visual Observation: PVC-coated pacemaker, one month
From the text: The devices are inserted into dogs and allowed to remain without electrical activation for a period of one month. The devices are then removed and examined visually and by agar cultures from the surface.

Candida albicans (yeast) = experiment: Minimum inhibitory concentration, fungistatic activity; format: cell-based; settings: Table III: Active Ingredient MIC
Aureobasidium pullulans = experiment: as above; format: cell-based; settings: Table III: Active Ingredient MIC
Solubility in H2O = format: physicochemical; settings: water
[6] = tested on: sessile colonization by bacteria or fungi; experiment: Implanted silicone rubber urinary catheters in dogs, growth after one week; format: in vivo; settings: silicone catheter; for Agar culture / Visual Examination: one week
From the text: These are inserted into large male dogs held in restraining harnesses. The catheters are examined for visible growth and cultured onto agar over a period of one week.

Staphylococcus aureus = experiment: Minimum inhibitory concentration, bacteriostatic activity; format: cell-based; settings: Table III: Active Ingredient MIC
E.c. = experiment: Zone of inhibition, silicone rubber film discs on inoculated agar; format: cell-based, Echerichia coli; settings: for Zones: Silicone; for Zone of Inhibition: silicone rubber film
From the text: as §2
(§4) The films were cut into discs and tested as in example one against S.a. and E.c.

S.a. = experiment: as above; format: cell-based, Staphlococcus aureus; settings: for Zones: Silicone; for Zones / Zone of Inhibition: S.a.; for Zone of Inhibition: silicone rubber film
From the text: as §2, §4

[7] = tested on: Aerobasidium pullulans (A.p); experiment: Growth of fungus on polyvinyl chloride film; format: cell-based; parameters: key: 0: zero (no growth); 5: five (heavy growth); settings: PVC film
Experimental: as §1, §3
(§5) In addition to zones of inhibition, the films were observed by growth of fungus on the film and rated from zero (no growth) to five (heavy growth).

Aspergillis niger (A.n.) [8] = experiment: Growth of fungus on polyvinyl chloride film; format: cell-based; parameters: key: 0: zero (no growth); 5: five (heavy growth); settings: PVC film
Experimental: as §1, §3, §5

P.a. = experiment: Zone of inhibition, silicone film; format: cell-based, Pseudomonas aeruginosa
fungi = experiment: Observation of incubated plates (antibiotics vs Compound 1): fungal overgrowth; format: cell-based; settings: as the plates were allowed to incubate

O=c1c(Cl)c(Cl)sn1C1CCCCC1 [Compound 1, 4,5-Dichloro-N--cyclohexyl-isothiazolin-3-one]
Zone of Inhibition ([1]; 1.0% by weight): slight | Zone of Inhibition ([1]; 5.0% by weight): 1 mm | MIC (Escherichia coli): 16 µg/mL (≈ 63.5 µM) | MIC (Pseudomonas aeruginosa): 62 µg/mL (≈ 246 µM) | resistant bacterial colonies on plates [2]: ability to suppress all species and not permit the growth of antibiotic resistant species | Zone of Inhibition ([3]; 0.05%): 1.8 mm | Zone of Inhibition ([3]; 0.1%): 4.3 mm | Zone of Inhibition (Echerichia coli (E.c.); 0.05%): 0.8 mm | Zone of Inhibition (Echerichia coli (E.c.); 0.1%): 1.8 mm | Zone of Inhibition (Echerichia coli (E.c.); 0.5%): 4.8 mm | Zone of Inhibition ([4]; 0.05%): 0 mm | Zone of Inhibition ([4]; 0.1%): 0 mm | Zone of Inhibition ([4]; 0.5%): 5.3 mm | MIC (Aspergillus niger): 0.5 µg/mL (≈ 1.98 µM) | Zone of Inhibition (Aspergillis niger (A.n.) [5]; 0.05%): 0 mm | Zone of Inhibition (Aspergillis niger (A.n.) [5]; 0.1%): 0 mm | Zone of Inhibition (Aspergillis niger (A.n.) [5]; 0.5%): 5.3 mm | Agar culture (sessile colonization; 0.05%): +3 | Visual Observation (sessile colonization; 0.05%): slime covered | Agar culture (sessile colonization; 0.1%): +1 | Visual Observation (sessile colonization; 0.1%): slight slime layer | Agar culture (sessile colonization; 0.5%): trace | Visual Observation (sessile colonization; 0.5%): clean | Agar culture (sessile colonization; 1.0%): 0 | Visual Observation (sessile colonization; 1.0%): clean | efficacy in resisting sessile colonization (sessile colonization; treated polyvinyl chloride, compared to untreated control): resisting sessile colonization, particularly as compared to untreated control | MIC (Candida albicans (yeast)): 0.5 µg/mL (≈ 1.98 µM) | MIC (Aureobasidium pullulans): 0.5 µg/mL (≈ 1.98 µM) | solubility (Solubility in H2O): 91 µg/mL (≈ 361 µM) | efficacy in resisting sessile colonization [6]: resisting sessile colonization by bacteria or fungi | Agar culture ([6]; 0.05% by weight): +2 | Visual Examination ([6]; 0.05% by weight): slight slime | Agar culture ([6]; 0.1% by weight): +1 | Visual Examination ([6]; 0.1% by weight): clean | Agar culture ([6]; 0.5% by weight): 0 | Visual Examination ([6]; 0.5% by weight): clean | Agar culture ([6]; 1.0% by weight): 0 | Visual Examination ([6]; 1.0% by weight): clean | MIC (Staphylococcus aureus): 10 µg/mL (≈ 39.7 µM) | Zones (E.c.; 1.0%): 16.3 mm | Zones (E.c.; 5.0%): 16.3 mm | Zones (E.c.; .20%): 14.3 mm | Zone of Inhibition (E.c.; Conc. 10): 0.1 mm | Zone of Inhibition (E.c.; Conc. 100): 5.5 mm | Zone of Inhibition (E.c.; Conc. 1000): 13.0 mm | bacteriocide activity compared with the best commercial antibiotics (S.a.; PVC and silicone films, Table E): essential equivalency | Zones (S.a.; 1.0%): 20.3 mm | Zones (S.a.; 5.0%): 20.3 mm | Zones (S.a.; .20%): 17.8 mm | Zone of Inhibition (S.a.; Conc. 10): 0.8 mm | Zone of Inhibition (S.a.; Conc. 100): 6.8 mm | Zone of Inhibition (S.a.; Conc. 1000): 16.3 mm | Growth on Film ([7]; 0.05%): 0 | Growth on Film ([7]; 0.1%): 0 | Growth on Film ([7]; 0.5%): 0 | Growth on Film (Aspergillis niger (A.n.) [8]; 0.05%): 1 | Growth on Film (Aspergillis niger (A.n.) [8]; 0.1%): 0 | Growth on Film (Aspergillis niger (A.n.) [8]; 0.5%): 0 | Zones (P.a.; 1.0%): 3.3 mm | Zones (P.a.; 5.0%): 3.3 mm | Zones (P.a.; .20%): 0.8 mm | overgrowth of plates by fungi (fungi): clean

CCCCCCCCn1sc(Cl)c(Cl)c1=O [Compound 5, 4,5-Dichloro-N--n-octyl-isothiazolin-3-one]
MIC (Escherichia coli): 16 µg/mL (≈ 56.7 µM) | MIC (Pseudomonas aeruginosa): 16 µg/mL (≈ 56.7 µM) | Zone of Inhibition ([3]; 0.05%): 0 mm | Zone of Inhibition ([3]; 0.1%): 0.3 mm | Zone of Inhibition ([3]; 0.5%): 3.3 mm | Zone of Inhibition (Echerichia coli (E.c.); 0.05%): 0 mm | Zone of Inhibition (Echerichia coli (E.c.); 0.1%): 0 mm | Zone of Inhibition (Echerichia coli (E.c.); 0.5%): 0 mm | Zone of Inhibition ([4]; 0.05%): 0 mm | Zone of Inhibition ([4]; 0.1%): 0 mm | Zone of Inhibition ([4]; 0.5%): 0 mm | MIC (Aspergillus niger): 9 µg/mL (≈ 31.9 µM) | Zone of Inhibition (Aspergillis niger (A.n.) [5]; 0.05%): 0 mm | Zone of Inhibition (Aspergillis niger (A.n.) [5]; 0.1%): 0 mm | Zone of Inhibition (Aspergillis niger (A.n.) [5]; 0.5%): 0 mm | MIC (Candida albicans (yeast)): 5 µg/mL (≈ 17.7 µM) | MIC (Aureobasidium pullulans): 5 µg/mL (≈ 17.7 µM) | MIC (Staphylococcus aureus): 4 µg/mL (≈ 14.2 µM) | Zone of Inhibition (E.c.; Conc. 10): 0 mm | Zone of Inhibition (E.c.; Conc. 100): 0 mm | Zone of Inhibition (E.c.; Conc. 1000): 0.8 mm | Zone of Inhibition (S.a.; Conc. 10): 0 mm | Zone of Inhibition (S.a.; Conc. 100): 1.8 mm | Zone of Inhibition (S.a.; Conc. 1000): 8.8 mm | Growth on Film ([7]; 0.05%): 5 | Growth on Film ([7]; 0.1%): 3 | Growth on Film ([7]; 0.5%): 1 | Growth on Film (Aspergillis niger (A.n.) [8]; 0.05%): 5 | Growth on Film (Aspergillis niger (A.n.) [8]; 0.1%): 3 | Growth on Film (Aspergillis niger (A.n.) [8]; 0.5%): 0
